One assay addresses ATR/ATRIP complex (Homo sapiens (Human), UniProt Q13535). The experiment in a line: ATR/ATRIP enzymatic assay (Caliper-based). It is filed as biochemical. The settings on record: FAM-labeled RAD17 peptide, ATP; read-out: ATR/ATRIP Enzyme IC50. The method, then: Human full-length FLAG-TEV-ATR and His6-ATRIP were co-expressed in HEK293 cells. […] The sample was loaded into a column, and then washed with buffer A three times. Protein was subsequently eluted with 2 ml of buffer B (buffer A+200 μg/ml 3×FLAG peptide).
The ability of new chemical matter to inhibit the ATR catalytic activity in this ATR/ATRIP complex was assessed using a Caliper-based assay. A 2× enzyme solution (i.e., 4 nM enzyme) was prepared using 1× Kinase Reaction Buffer (25 mM HEPES pH 8, 0.0055% Brij-35, 10 mM MnCl2, and 1 mM DTT). […] 10 μL of the 2× enzyme solution was transferred to an assay plate containing 60 nL of test compound (from a 3× serial dilution) in 100% DMSO. Following a 30 minute incubation at 28° C., 10 μL of the 2× peptide solution was then transferred to the same assay plate. The reaction was allowed to incubate at 28° C. for 6 hours. After adding […] of stop buffer (100 mM HEPES pH 7.5, 0.015% Brij-35, 0.2% Coating-3 Reagent (PerkinElmer, catalog # PN760050), and 50 mM EDTA), data were collected on a Caliper instrument. Conversion values were converted to inhibition values via the following equation: % inhibition=(max−conversion)/(max−min)*100, whereby “max” corresponds to the DMSO control and “min” corresponds to the low control. IC50 values were calculated using the following equation in XLFit: Y=Bottom+(Top−Bottom)/1+(IC50/X)^HillSlope).

The subject of assay [1] is ATR-driven phosphorylation of Chk1 kinase at Serine 345 in HT-29 cells. Description: pCHK1 cellular assay (CHK1 p-Ser345 AlphaScreen SureFire). The settings on record: Homo sapiens, HT-29, read-out: pCHK1 Cell IC50. A general note: Alpha assays give light when donor and acceptor beads are brought close together.
Experimental: The microplate was incubated overnight (approximately 20 hours) at 37° C. with 5% CO2 and ambient 02. Stock solutions of the test compounds were prepared in 100% DMSO (Sigma, Catalog # D2650) and serially diluted 1:3 using 100% DMSO. Compounds were additionally diluted 1:33 in culture medium, and 10 ul/well were transferred to the tissue culture plate. Following the compound addition the microplate was incubated at 37° C. for 90 minutes. […] The cells were then washed with PBS and lysed using 10 uL/well […] ® Kit lysis buffer diluted to 1× in water (PerkinElmer Catalog # TGRCHK1S50K), with mixing on an orbital shaker at 500 rpm for 20 min at RT. Lysates were frozen at −20° C. overnight.
The pCHK1 ALPHASCREEN® signal was measured using an ENVISION® plate reader (PerkinElmer). IC50 values were calculated using a four-parameter logistic curve fit using Genedata Screener software. Percent of control for each compound concentration was calculated by the following formula: 100*(Compound-Min)/(Max-Min) where “Max” is the high control, DMSO, and “Min” is the low control, 5 uM ATR inhibitor.

Structures are written as SMILES.

Chain of ATR/ATRIP complex (Q13535 whole entry): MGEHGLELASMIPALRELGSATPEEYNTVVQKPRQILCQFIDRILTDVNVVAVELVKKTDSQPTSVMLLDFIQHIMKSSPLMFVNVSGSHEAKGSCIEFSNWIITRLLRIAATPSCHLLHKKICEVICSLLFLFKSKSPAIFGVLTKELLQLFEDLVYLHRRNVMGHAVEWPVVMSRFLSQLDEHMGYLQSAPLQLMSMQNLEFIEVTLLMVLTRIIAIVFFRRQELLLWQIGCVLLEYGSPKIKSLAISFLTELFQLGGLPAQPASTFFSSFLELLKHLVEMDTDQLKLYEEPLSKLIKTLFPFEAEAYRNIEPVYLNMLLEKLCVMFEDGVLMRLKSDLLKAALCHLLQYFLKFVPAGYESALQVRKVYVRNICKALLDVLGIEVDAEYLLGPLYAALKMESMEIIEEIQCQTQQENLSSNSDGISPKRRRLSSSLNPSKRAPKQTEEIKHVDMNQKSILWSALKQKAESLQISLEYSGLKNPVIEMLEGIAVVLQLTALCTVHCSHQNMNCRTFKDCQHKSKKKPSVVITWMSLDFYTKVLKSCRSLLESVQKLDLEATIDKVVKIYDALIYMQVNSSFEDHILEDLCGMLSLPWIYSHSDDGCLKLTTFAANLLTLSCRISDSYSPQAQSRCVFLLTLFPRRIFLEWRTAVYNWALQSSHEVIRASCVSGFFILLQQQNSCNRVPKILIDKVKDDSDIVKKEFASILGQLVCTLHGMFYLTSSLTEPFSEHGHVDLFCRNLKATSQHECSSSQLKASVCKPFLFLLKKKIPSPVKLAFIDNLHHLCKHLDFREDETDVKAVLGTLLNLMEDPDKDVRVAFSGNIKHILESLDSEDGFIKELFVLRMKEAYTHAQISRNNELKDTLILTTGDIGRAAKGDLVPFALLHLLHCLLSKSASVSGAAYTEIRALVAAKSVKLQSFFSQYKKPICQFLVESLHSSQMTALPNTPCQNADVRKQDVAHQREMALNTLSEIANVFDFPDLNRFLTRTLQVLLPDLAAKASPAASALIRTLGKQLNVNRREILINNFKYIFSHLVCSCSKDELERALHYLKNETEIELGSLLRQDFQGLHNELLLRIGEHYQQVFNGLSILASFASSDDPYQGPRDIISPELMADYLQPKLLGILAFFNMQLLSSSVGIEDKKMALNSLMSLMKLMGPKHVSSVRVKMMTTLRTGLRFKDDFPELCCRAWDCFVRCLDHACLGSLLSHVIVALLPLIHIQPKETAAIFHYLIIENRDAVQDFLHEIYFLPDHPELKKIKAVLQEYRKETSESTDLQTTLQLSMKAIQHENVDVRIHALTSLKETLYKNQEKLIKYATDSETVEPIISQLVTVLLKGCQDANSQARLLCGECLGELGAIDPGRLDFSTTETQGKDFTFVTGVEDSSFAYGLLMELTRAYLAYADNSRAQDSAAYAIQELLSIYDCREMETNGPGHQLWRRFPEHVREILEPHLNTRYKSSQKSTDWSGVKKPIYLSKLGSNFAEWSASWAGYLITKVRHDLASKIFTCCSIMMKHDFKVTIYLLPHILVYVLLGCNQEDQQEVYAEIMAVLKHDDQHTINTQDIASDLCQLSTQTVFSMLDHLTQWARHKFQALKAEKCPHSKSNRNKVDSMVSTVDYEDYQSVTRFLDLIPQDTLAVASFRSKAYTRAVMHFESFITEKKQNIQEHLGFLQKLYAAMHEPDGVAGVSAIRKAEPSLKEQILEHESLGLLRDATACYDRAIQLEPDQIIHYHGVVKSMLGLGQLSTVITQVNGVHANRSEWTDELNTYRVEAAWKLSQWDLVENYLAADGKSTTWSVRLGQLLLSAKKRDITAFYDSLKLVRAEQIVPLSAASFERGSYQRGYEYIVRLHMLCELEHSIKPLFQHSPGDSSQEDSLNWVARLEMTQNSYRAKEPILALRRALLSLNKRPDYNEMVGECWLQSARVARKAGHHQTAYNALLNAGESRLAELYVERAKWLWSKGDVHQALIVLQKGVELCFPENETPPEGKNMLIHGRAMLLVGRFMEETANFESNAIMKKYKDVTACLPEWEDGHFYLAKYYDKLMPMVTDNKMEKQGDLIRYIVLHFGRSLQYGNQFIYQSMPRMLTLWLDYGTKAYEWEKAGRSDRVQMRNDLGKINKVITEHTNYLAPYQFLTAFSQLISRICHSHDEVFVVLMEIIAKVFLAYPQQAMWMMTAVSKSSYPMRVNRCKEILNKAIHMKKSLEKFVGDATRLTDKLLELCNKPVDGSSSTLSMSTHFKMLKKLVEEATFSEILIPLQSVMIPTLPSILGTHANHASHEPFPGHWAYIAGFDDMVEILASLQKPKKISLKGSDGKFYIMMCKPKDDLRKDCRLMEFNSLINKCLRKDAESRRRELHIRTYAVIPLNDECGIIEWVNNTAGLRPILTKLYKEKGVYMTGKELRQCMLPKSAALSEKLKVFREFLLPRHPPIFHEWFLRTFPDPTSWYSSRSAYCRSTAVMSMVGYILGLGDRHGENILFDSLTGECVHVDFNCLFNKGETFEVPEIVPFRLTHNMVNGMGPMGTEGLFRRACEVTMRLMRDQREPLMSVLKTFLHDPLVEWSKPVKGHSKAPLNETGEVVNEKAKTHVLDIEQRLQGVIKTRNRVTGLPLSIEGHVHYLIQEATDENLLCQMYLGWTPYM
Chain of ATR/ATRIP complex (Q8WXE1 whole entry partner): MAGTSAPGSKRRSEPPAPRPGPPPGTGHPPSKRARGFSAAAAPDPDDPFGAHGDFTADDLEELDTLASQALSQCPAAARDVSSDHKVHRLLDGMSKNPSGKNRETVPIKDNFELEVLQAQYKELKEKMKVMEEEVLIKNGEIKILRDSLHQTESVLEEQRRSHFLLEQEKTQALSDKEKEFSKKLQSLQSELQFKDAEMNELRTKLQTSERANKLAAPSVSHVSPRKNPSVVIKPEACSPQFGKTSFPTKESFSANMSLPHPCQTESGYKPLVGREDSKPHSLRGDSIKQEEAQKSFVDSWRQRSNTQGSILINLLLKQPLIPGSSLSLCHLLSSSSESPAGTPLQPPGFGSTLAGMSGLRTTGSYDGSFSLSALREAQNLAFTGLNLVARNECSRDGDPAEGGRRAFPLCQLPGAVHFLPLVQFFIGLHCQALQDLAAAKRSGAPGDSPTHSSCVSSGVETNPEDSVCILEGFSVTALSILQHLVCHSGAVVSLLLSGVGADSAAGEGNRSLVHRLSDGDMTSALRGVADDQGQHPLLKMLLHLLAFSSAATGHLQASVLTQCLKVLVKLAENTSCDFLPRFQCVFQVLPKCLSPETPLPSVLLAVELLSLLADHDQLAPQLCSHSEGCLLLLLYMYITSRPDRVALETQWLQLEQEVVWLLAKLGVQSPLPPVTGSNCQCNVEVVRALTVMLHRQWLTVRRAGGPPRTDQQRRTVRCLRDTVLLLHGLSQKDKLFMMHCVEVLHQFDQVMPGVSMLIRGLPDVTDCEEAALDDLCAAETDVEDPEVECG

For `C[C@@H]1COCCN1c1cc(C2CCN(C(=O)OCC3CC3)CC2)nc(-c2ccnc3[nH]ccc23)n1` [Example 28, Cyclopropylmethyl 4-{6-[(3R)-3-methylmorpholin-4-yl]-2-{1H-pyrrolo[2,3-b]-pyridin-4-yl}pyrimidin-4-yl}piperidine-1-carboxylate], the values for the IC50 (at ATR/ATRIP complex; in assay [1]) were 17 nM and 270 nM, respectively.
In the case of `C[C@@H]1COCCN1c1cc(C2(C)CCCS2(=O)=O)nc(-c2ccnc3[nH]ccc23)n1` (stereo partly drawn) [Example 29, 2-Methyl-2-(6-((R)-3-methylmorpholino)-2-(1H-pyrrolo[2,3-b]pyridin-4-yl)pyrimidin-4-yl)tetrahydrothiophene 1,1-dioxide], the results for the IC50 (on ATR/ATRIP complex; in assay [1]) were 8 nM and 89 nM, respectively.
Consider `C[C@@H]1COCCN1c1cc([C@]2(C)CCCS2(=O)=O)nc(-c2ccnc3[nH]ccc23)n1` [Example 30a, (S)-2-methyl-2-(6-((R)-3-methylmorpholino)-2-(1H-pyrrolo[2,3-b]pyridin-4-yl)pyrimidin-4-yl)tetrahydrothiophene 1,1-dioxide], for which the IC50 on ATR/ATRIP complex was 6 nM; in assay [1], 76 nM.
For `C[C@@H]1COCCN1c1cc([C@@]2(C)CCCS2(=O)=O)nc(-c2ccnc3[nH]ccc23)n1` [Example 30b, (R)-2-methyl-2-(6-((R)-3-methylmorpholino)-2-(1H-pyrrolo[2,3-b]pyridin-4-yl)pyrimidin-4-yl)tetrahydrothiophene 1,1-dioxide], the IC50 at ATR/ATRIP complex was found to be 6 nM; in assay [1], 106 nM.

These data come from patent publication US10800774B2, “Heterocyclic inhibitors of ATR kinase” (Board of Regents, The University of Texas System, priority 2017, dated 2020).
